Experimental data as given in patent publication US8017600B2, “Imidazole compounds” (Janssen Pharmaceutica NV, priority 2004, dated 2011).

Each molecule was assayed against T1, human histamine H4 receptor (Homo sapiens, UniProt Q9H3N8) (assay: Binding assay on recombinant human histamine H4 receptor (3H-histamine displacement)). Conditions: membranes of SK-N-MC or COS7 cells expressing human H4 receptor, Cheng-Prusoff.
T1 construct: expressed in transfected cells; host or cells: SK-N-MC cells or COS7 cells, transient transfection; cell membranes
Description: SK-N-MC cells or COS7 cells were transiently transfected with pH4R and grown in 150 cm^2 tissue culture dishes. Cells were washed with saline solution, scraped with a cell scraper and collected by centrifugation (1000 rpm, 5 min). Cell membranes were prepared by homogenization of the cell pellet in 20 mM Tris-HCl with a polytron tissue homogenizer for 10 sec at high speed. Homogenate was centrifuged at 1000 rpm for 5 min at 4° C. The supernatant was then collected and centrifuged at 20,000×g for 25 min at 4° C. The final pellet was resuspended in 50 mM Tris-HCl. Cell membranes were incubated with ^3H-histamine (5-70 nM) in the presence or absence of excess histamine (10,000 nM). Incubation occurred at room temperature for 45 min. Membranes were harvested by rapid filtration over Whatman GF/C filters and washed 4 times with ice-cold 50 mM Tris HCl. Filters were then dried, mixed with scintillant and counted for radioactivity. SK-N-MC or COS7 cells expressing human histamine H4 receptor were used to measure the affinity of binding of other compounds and their ability to displace ^3H-ligand binding by incubating the above-described reaction in the presence of various concentrations of inhibitor or compound to be tested.

Ki [nM] | Compound
24 | Cc1ccc(-c2nc(-c3ccc(OCCCN4CCN(C)CC4)cc3Cl)[nH]c2-c2ccc(C)cc2)cc1 [Example 5, 1-{3-[3-Chloro-4-(4,5-di-p-tolyl-1H-imidazol-2-yl)-phenoxy]-propyl}-4-methyl-piperazine]
16 | Cc1cc(OCCCC2CCN(C)CC2)ccc1-c1nc(-c2cccc(C(F)(F)F)c2)c(C)[nH]1 [Example 46, 1-Methyl-4-(3-{3-methyl-4-[5-methyl-4-(3-trifluoromethyl-phenyl)-1H-imidazol-2-yl]-phenoxy}-propyl)-piperidine]
300 | Cc1cc(OCCOC2CCN(C)CC2)ccc1-c1nc(-c2cccc(C(F)(F)F)c2)c(C)[nH]1 [Example 26, 1-Methyl-4-(2-{3-methyl-4-[5-methyl-4-(3-trifluoromethyl-phenyl)-1H-imidazol-2-yl]-phenoxy}-ethoxy)-piperidine]
32 | Cc1cc(OCCCC2CCN(C)CC2)ccc1-c1nc(-c2ccccc2)c(C(F)(F)F)[nH]1 [Example 14, 1-Methyl-4-{3-[3-methyl-4-(4-phenyl-5-trifluoromethyl-1H-imidazol-2-yl)-phenoxy]-propyl}-piperidine]
620 | Cc1cc(OCCOC2CCN(C)CC2)ccc1-c1nc(-c2ccc(Cl)cc2)c(C)[nH]1 [Example 48, 4-(2-{4-[4-(4-Chloro-phenyl)-5-methyl-1H-imidazol-2-yl]-3-methyl-phenoxy}-ethoxy)-1-methyl-piperidine]
38 | CN1CCC(CCCOc2ccc(-c3nc(-c4ccccc4)c(C(F)(F)F)[nH]3)c(Cl)c2)CC1 [Example 15, 4-{3-[3-Chloro-4-(4-phenyl-5-trifluoromethyl-1H-imidazol-2-yl)-phenoxy]-propyl}-1-methyl-piperidine]
69 | CCCc1[nH]c(-c2ccc(OCCCC3CCN(C)CC3)cc2Cl)nc1C [Example 24, 4-{3-[3-Chloro-4-(4-methyl-5-propyl-1H-imidazol-2-yl)-phenoxy]-propyl}-1-methyl-piperidine]
20 | CN1CCN(CCCOc2ccc(-c3nc(-c4ccccc4)c(C(F)(F)F)[nH]3)c(Cl)c2)CC1 [Example 44, 1-{3-[3-Chloro-4-(4-phenyl-5-trifluoromethyl-1H-imidazol-2-yl)-phenoxy]-propyl}-4-methyl-piperazine]
11 | CN1CCCN(CCCOc2ccc(-c3nc(-c4ccc(Br)cc4)c(-c4ccc(Br)cc4)[nH]3)c(Cl)c2)CC1 [Example 9, 1-(3-{4-[4,5-Bis-(4-bromo-phenyl)-1H-imidazol-2-yl]-3-chloro-phenoxy}-propyl)-4-methyl-[1,4]diazepane]
79 | CN1CCCN(CCCOc2ccc(-c3nc(-c4ccccc4)c(C(F)(F)F)[nH]3)cc2Cl)CC1 [Example 45, 1-{3-[2-Chloro-4-(4-phenyl-5-trifluoromethyl-1H-imidazol-2-yl)-phenoxy]-propyl}-4-methyl-[1,4]diazepane]
45 | Cc1cc(OCCCC2CCN(C)CC2)ccc1-c1nc(-c2cc(Cl)cc(Cl)c2)c(C)[nH]1 [Example 18, 4-(3-{4-[4-(3,5-Dichloro-phenyl)-5-methyl-1H-imidazol-2-yl]-3-methyl-phenoxy}-propyl)-1-methyl-piperidine]
29 | Cc1ccc(-c2[nH]c(-c3ccc(OCCCC4CCN(C)CC4)cc3Cl)nc2-c2ccc(Cl)cc2)cc1 [Example 22, 4-(3-{3-Chloro-4-[4-(4-chloro-phenyl)-5-p-tolyl-1H-imidazol-2-yl]-phenoxy}-propyl)-1-methyl-piperidine]
39 | CN1CCC(CCCOc2ccc(-c3nc(-c4ccc(F)cc4)c(-c4ccc(F)cc4)[nH]3)c(Cl)c2)CC1 [Example 20, 4-(3-{4-[4,5-Bis-(4-fluoro-phenyl)-1H-imidazol-2-yl]-3-chloro-phenoxy}-propyl)-1-methyl-piperidine]
52 | Cc1[nH]c(-c2ccc(OCCCC3CCN(C)CC3)cc2Cl)nc1-c1cc(Cl)cc(Cl)c1 [Example 17, 4-(3-{3-Chloro-4-[4-(3,5-dichloro-phenyl)-5-methyl-1H-imidazol-2-yl]-phenoxy}-propyl)-1-methyl-piperidine]
42 | Cc1[nH]c(-c2ccc(OCCCC3CCN(C)CC3)nc2)nc1-c1cccc(C(F)(F)F)c1 [Example 29, 2-[3-(1-Methyl-piperidin-4-yl)-propoxy]-5-[5-methyl-4-(3-trifluoromethyl-phenyl)-1H-imidazol-2-yl]-pyridine]
290 | Cc1[nH]c(-c2ccc(OCCCC3CCN(C)CC3)nc2)nc1-c1cc(Cl)cc(Cl)c1 [Example 27, 5-[4-(3,5-Dichloro-phenyl)-5-methyl-1H-imidazol-2-yl]-2-[3-(1-methyl-piperidin-4-yl)-propoxy]-pyridine]

Ki [nM] | Compound
29 | CN1CCN(CCCOc2ccc(-c3nc(-c4ccc(F)cc4)c(-c4ccc(F)cc4)[nH]3)c(Cl)c2)CC1 [Example 6, 1-(3-{4-[4,5-Bis-(4-fluoro-phenyl)-1H-imidazol-2-yl]-3-chloro-phenoxy}-propyl)-4-methyl-piperazine]
21 | COc1cccc(-c2nc(-c3ccc(OCCCN4CCN(C)CC4)cc3Cl)[nH]c2-c2cccc(OC)c2)c1 [Example 7, 1-(3-{4-[4,5-Bis-(3-methoxy-phenyl)-1H-imidazol-2-yl]-3-chloro-phenoxy}-propyl)-4-methyl-piperazine]
39 | CN1CCN(CCCOc2ccc(-c3nc(-c4ccccc4)c(-c4ccccc4)[nH]3)c(Cl)c2)CC1 [Example 2, 1-{3-[3-Chloro-4-(4,5-diphenyl-1H-imidazol-2-yl)-phenoxy]-propyl}-4-methyl-piperazine]
65 | CN1CCCN(CCCOc2ccc(-c3nc4c([nH]3)CCCC4)cc2Cl)CC1 [Example 12, 2-{3-Chloro-4-[3-(4-methyl-[1,4]diazepan-1-yl)-propoxy]-phenyl}-4,5,6,7-tetrahydro-1H-benzoimidazole]
250 | Cc1[nH]c(-c2cccc(OCCCCC3CCN(C)CC3)c2)nc1-c1ccc(C(F)(F)F)cc1 [Example 41, 1-Methyl-4-(4-{3-[5-methyl-4-(4-trifluoromethyl-phenyl)-1H-imidazol-2-yl]-phenoxy}-butyl)-piperidine]
32 | CN1CCCN(CCCOc2ccc(-c3nc4c([nH]3)CCCC4)c(Cl)c2)CC1 [Example 13, 2-{2-Chloro-4-[3-(4-methyl-[1,4]diazepan-1-yl)-propoxy]-phenyl}-4,5,6,7-tetrahydro-1H-benzoimidazole]
70 | Cc1[nH]c(-c2ccc(OCCCN3CCCN(C)CC3)c(Cl)c2)nc1-c1ccccc1 [Example 11, 1-{3-[2-Chloro-4-(5-methyl-4-phenyl-1H-imidazol-2-yl)-phenoxy]-propyl}-4-methyl-[1,4]diazepane]
72 | Cc1[nH]c(-c2ccc(OCCCC3CCN(C)CC3)nc2)nc1-c1ccc(Cl)cc1 [Example 28, 5-[4-(4-Chloro-phenyl)-5-methyl-1H-imidazol-2-yl]-2-[3-(1-methyl-piperidin-4-yl)-propoxy]-pyridine]
63 | Cc1[nH]c(-c2ccc(OCCCN3CCN(C)CC3)nc2)nc1-c1cccc(C(F)(F)F)c1 [Example 33, 1-Methyl-4-(3-{5-[5-methyl-4-(3-trifluoromethyl-phenyl)-1H-imidazol-2-yl]-pyridin-2-yloxy}-propyl)-piperazine]
93 | Cc1nc(-c2ccc(OCCCC3CCN(C)CC3)cc2Cl)[nH]c1CC(C)C [Example 40, 4-{3-[3-Chloro-4-(5-isobutyl-4-methyl-1H-imidazol-2-yl)-phenoxy]-propyl}-1-methyl-piperidine]
22 | Cc1[nH]c(-c2ccc(OCCCC3CCN(C)CC3)cc2Cl)nc1-c1ccc(Cl)cc1 [Example 19, 4-(3-{3-Chloro-4-[4-(4-chloro-phenyl)-5-methyl-1H-imidazol-2-yl]-phenoxy}-propyl)-1-methyl-piperidine]
6 | COc1cccc(-c2nc(-c3ccc(OCCCN4CCCN(C)CC4)cc3Cl)[nH]c2-c2cccc(OC)c2)c1 [Example 10, 1-(3-{4-[4,5-Bis-(3-methoxy-phenyl)-1H-imidazol-2-yl]-3-chloro-phenoxy}-propyl)-4-methyl-[1,4]diazepane]
57 | CN1CCC(CCCCOc2cccc(-c3nc(-c4ccccc4)c(C(F)(F)F)[nH]3)c2)CC1 [Example 35, 1-Methyl-4-{4-[3-(4-phenyl-5-trifluoromethyl-1H-imidazol-2-yl)-phenoxy]-butyl}-piperidine]
165 | Cc1[nH]c(-c2ccc(OCCCC3CCN(C)CC3)cc2Cl)nc1-c1cccc(C(F)(F)F)c1 [Example 16, 4-(3-{3-Chloro-4-[5-methyl-4-(3-trifluoromethyl-phenyl)-1H-imidazol-2-yl]-phenoxy}-propyl)-1-methyl-piperidine]
186 | CN1CCC(CCCOc2ccc(-c3nc(-c4ccccc4)c(C(F)(F)F)[nH]3)cn2)CC1 [Example 31, 2-[3-(1-Methyl-piperidin-4-yl)-propoxy]-5-(4-phenyl-5-trifluoromethyl-1H-imidazol-2-yl)-pyridine]
14 | CN1CCN(CCCOc2ccc(-c3nc(-c4ccc(Br)cc4)c(-c4ccc(Br)cc4)[nH]3)c(Cl)c2)CC1 [Example 1, 1-(3-{4-[4,5-Bis-(4-bromo-phenyl)-1H-imidazol-2-yl]-3-chloro-phenoxy}-propyl)-4-methyl-piperazine]

Compound | Ki [nM]
CN1CCC(CCCCOc2cccc(-c3nc4cccnc4[nH]3)c2)CC1 [Example 69, 2-{3-[4-(1-Methyl-piperidin-4-yl)-butoxy]-phenyl}-3H-imidazo[4,5-b]pyridine] | 1410
